According to PubChem BioAssay (NCI):
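How tested: cells in 96-well plates exposed to compound for 48 hours at five concentrations. TGI: concentration producing complete growth inhibition.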 Where a SMILES comes first, the peptide text is derived from it.

Assays:
Assay in all cases: inhibition of tumour cell growth, NCI panel, 48 h
SK-MEL-2 melanoma = system: SK-MEL-2 melanoma
OVCAR-8 ovarian = system: OVCAR-8 ovarian
786-0 renal = system: 786-0 renal
A549 NSCLC = system: A549 NSCLC
HCT-15 colon = system: HCT-15 colon
OVCAR-5 ovarian = system: OVCAR-5 ovarian
HT29 colon = system: HT29 colon
SNB-75 CNS = system: SNB-75 CNS
RPMI-8226 leukemia = system: RPMI-8226 leukemia
CCRF-CEM leukemia = system: CCRF-CEM leukemia
RXF 393 renal = system: RXF 393 renal

Measured: TGI

CC(C)(C)[Si](C)(C)OCC1OC(n2ccc(=O)[nH]c2=O)C(O[Si](C)(C)C(C)(C)C)[C@]12O[C@@H]2CO (stereo partly specified)
40.4 µM: SNB-75 CNS
31.1 µM: HCT-15 colon
44.6 µM: 786-0 renal
23.8 µM: HT29 colon
26.6 µM: A549 NSCLC
40.6 µM: OVCAR-5 ovarian
28.6 µM: SK-MEL-2 melanoma
> 100 µM: OVCAR-8 ovarian | RPMI-8226 leukemia

CC(C)(C)n1c(=O)n2n(c1=O)C1c3cccc4cccc(c34)C2C2c3cccc4cccc(c34)C1n1c(=O)n(C(C)(C)C)c(=O)n12
not listed: RXF 393 renal
> 100 µM: all other assays above

C#CCOCn1cc(C)c(=O)[nH]c1=O
not listed: RXF 393 renal
> 100 µM: all other assays above

O=C(CC1(O)C(=O)Nc2c(Cl)cc(Cl)cc21)c1ccc(F)cc1 (stereo unspecified)
70.1 µM: HT29 colon
61.4 µM: RPMI-8226 leukemia
47.6 µM: OVCAR-8 ovarian
88.3 µM: RXF 393 renal
38.9 µM: 786-0 renal
63.8 µM: SNB-75 CNS
not listed: CCRF-CEM leukemia
> 100 µM: all other assays above

COC(=O)[C@]12CSC[C@H]1C[C@H](c1cccc3ccccc13)N2
not listed: HT29 colon | RXF 393 renal
> 100 µM: all other assays above

CCC(C)C(NC(=O)C(CC(C)C)NC(=O)CNC(=O)C(NC(=O)C1CCCN1C(=O)C(CC(C)C)NC(=O)C(N)Cc1ccccc1)C(C)CC)C(=O)NC(CC(C)C)C(N)=O (stereo unspecified) (H-FLPIGLIL-NH2; configuration not given here)
not listed: SNB-75 CNS | RXF 393 renal
> 75 µM: all other assays above

CCCCC1(O)CC2CC1C(C)C2(C)C (stereo unspecified)
not listed: SK-MEL-2 melanoma
> 100 µM: all other assays above

CCCCCCCCCCCCC(Br)C(C)=O (stereo unspecified)
not listed: SNB-75 CNS | RPMI-8226 leukemia
> 100 µM: all other assays above

O=C(O)CCN(CCCN(CCC(=O)O)CCC(=O)O)CCC(=O)O
not listed: RXF 393 renal
> 100 µM: all other assays above

Cc1ccc(C(=O)Oc2ccc(/C=C3\CCC/C(=C\c4ccc(OC(=O)c5ccc(C)cc5)cc4)C3=O)cc2)cc1
not listed: RXF 393 renal
> 100 µM: all other assays above
